Measurements as given in US20190365776A1, “THERAPEUTIC AGENT FOR OCULAR FUNDUS DISEASE” (KYUSHU UNIVERSITY, NATIONAL UNIVERSITY CORPORATION, priority 2013, published 2019).

How the values were obtained:
[1] = tested on: mice OIR (Oxygen-Induced Retinopathy) model; test: Mice OIR (oxygen-induced retinopathy) model, flat-mounted retina; type: in vivo, C57BL/6JJcl mice; details: ocular instillation 20 μL three times a day, day 12 to day 17 after birth, flat mount
Procedure: The effectiveness of (S)-(−)-1-(4-fluoro-5-isoquinolinesulfonyl)-2-methyl-1,4-homopiperazine (compound 1) in a mice OIR model commonly used as a model of ischemic retinopathy such as diabetic retinopathy was examined in the following manner. Compound 1 solutions: 0.4% solution, 0.8% solution (instillation volume: 20 μL) Fasudil solution: 0.4% solution (instillation volume: 20 μL) Test animals: C57BL/6JJcl mice (sex: male, 8 to 14 mice per group) C57BL/6JJcl mice born on the same day were reared in a 75%-oxygen environment from day 7 after birth, and were then transferred to a normal indoor environment on day 12 after birth to start administration by ocular instillation. Test groups were a saline instillation group (control), a 0.4% compound 1 solution instillation group, a 0.8% compound 1 solution instillation group, and a 0.4% fasudil solution instillation group, and saline, the compound 1 solution, or the fasudil solution was administered by ocular instillation three times a day. On day 17 after birth, ischemic retinal areas (non-perfused areas) and neovascular areas were quantified for evaluation by flat-mounting or fluorescein fundus angiography. More specifically, 1 g/kg of pentobarbital (Nembutal) was administered intraperitoneally for euthanasia under deep anesthesia, and then both eyeballs were excised and fixed with 4% paraformaldehyde (PFA) at 37° C. for 1 hour, and the corneal limbus was circumferentially incised to remove the cornea and iris from the eyeball. Then, after fixation with 4% PFA at 37° C. for 1 hour, the lens, sclera, and choroid were removed, and the eye cup including the retina was isolated. Further, the retina was fixed with 4% PFA at 37° C. for 3 hours, washed with PBS three times (15 min per wash, 37° C.), dehydrated (methanol 50% 100%, 10 min per methanol treatment, 37° C.), washed with PBS three times (15 min per wash, 37° C.), and blocked with Blocking Buffer (1% BSA, 0.5% Triton-X in PBS) for 60 minutes (37° C.). Then, the retina was treated with a primary antibody (0.7% FITC-conjugates Anti-lectin Ab in PBS, 4° C., overnight) and washed with PBS three times (15 min per wash, 37° C.). Then, 4 to 6 cuts were radially made in the eye cup, and the flat-mounted retina was covered with Crystal Mount. Then, the image of the flat-mounted retina was taken with a fluorescence microscope (BZ-9000, KEYENCE Corp, Osaka, Japan), and the proportion of the non-perfused area to the entire retina and the proportion of the neovascular area to the entire retina were calculated by the following formulas in NIH image J software. The thus obtained values were converted to relative values by regarding the obtained values of the saline instillation group (control) as 100%, and statistical analysis was performed by Wilcoxon test. Non-perfused area=area of avascular region/area of entire retina Neovascular area=area of neovascular region/area of entire retina

[2] = tested on: mice OIR (Oxygen-Induced Retinopathy) model; test: Mice OIR model, fluorescein fundus angiography; type: in vivo, C57BL/6JJcl mice; details: 0.8% solution, ocular instillation three times a day, day 17 after birth
Source text: C57BL/6JJcl mice born on the same day were reared in a 75%-oxygen environment from day 7 after birth, and were then transferred to a normal indoor environment on day 12 after birth to start administration by ocular instillation. Test groups were a saline instillation group (control), a 0.4% compound 1 solution instillation group, a 0.8% compound 1 solution instillation group, and a 0.4% fasudil solution instillation group, and saline, the compound 1 solution, or the fasudil solution was administered by ocular instillation three times a day. On day 17 after birth, ischemic retinal areas (non-perfused areas) and neovascular areas were quantified for evaluation by flat-mounting or fluorescein fundus angiography. More specifically, 1 g/kg of pentobarbital (Nembutal) was administered intraperitoneally for euthanasia under deep anesthesia, and then both eyeballs were excised and fixed with 4% paraformaldehyde (PFA) at 37° C. for 1 hour, and the corneal limbus was circumferentially incised to remove the cornea and iris from the eyeball. […] Then, the image of the flat-mounted retina was taken with a fluorescence microscope (BZ-9000, KEYENCE Corp, Osaka, Japan), and the proportion of the non-perfused area to the entire retina and the proportion of the neovascular area to the entire retina were calculated by the following formulas in NIH image J software. […]

## C[C@H]1CNCCCN1S(=O)(=O)c1cccc2cncc(F)c12 [compound 1, (S)-(−)-1-(4-fluoro-5-isoquinolinesulfonyl)-2-methyl-1,4-homopiperazine]
[1]; 0.4% solution
  relative value of the neovascular area (saline instillation group = 100%): 58.2%
  relative value of the non-perfused area (saline instillation group = 100%): 77.0%
[1]; 0.8% solution
  relative value of the neovascular area (saline instillation group = 100%): 52.7%
  relative value of the non-perfused area (saline instillation group = 100%): 58.1%
[2]
  relative value of the neovascular area (saline instillation group = 100%): 41.6%
